Activity calls are given as the source filed them.
How the values were obtained:
[1] = molecular target: Sphingosine 1-phosphate receptor 1 (Homo sapiens, UniProt P21453); assay: Fluorescence-based counterscreen assay for S1P4 agonists: Cell-based dose response high throughput screening assay to identify agonists of the Sphingosine 1-Phosphate Receptor 1 (S1P1). [Related pubchem assays (depositor defined):AID1509, AID1523, AID1801, AID463107, AID463118, AID463119, AID463122, AID463123, AID463129, AID463225, AID504400, AID504460]; format: functional
BJ [2] = assay: BJ-TERT fibroblast viability loss – cell-based, RAS-independent, luminescence, dose response (AID 1933); format: functional; conditions: Homo sapiens
BJ [3] = assay: cells; format: functional, cell-based; conditions: Homo sapiens
[4] = molecular target: Sphingosine 1-phosphate receptor 4 (Homo sapiens, UniProt O95977); assay: Fluorescence dose response cell-based high throughput screening assay for agonists of the Sphingosine 1-Phosphate Receptor 4 (S1P4). [Related pubchem assays: 1509 (Primary screen.), 1523 (Confirmation screen in triplicates.)]; format: functional
BJ [5] = assay: BJ-TERT-LT-ST fibroblast viability loss – cell-based, RAS-independent, luminescence, dose response (AID 1935); format: functional; conditions: Homo sapiens;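 also: BJ fibroblasts immortalized with TERT plus LT and ST oncogenes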
[6] = DRD fibroblast viability loss – cell-based, non-viral oncogenic, luminescence, dose response (AID 1934); format: functional; conditions: Homo sapiens
[7] = HEK-293T viability loss after treatment – luminescence, T-cell screen hits, cytotoxicity control for TCR NF-kB inhibitor project, dose response (AID 489026); format: functional, cell-based;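 also: cells exposed to compound about 14 hours before the viability readout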
BJ [8] = assay: growth inhibition of engineered Ras-driven BJ cells – cell-based, alamar blue fluorescence, cherrypicked samples, dose response (AID 2631); format: functional; conditions: Homo sapiens;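 also: confirmatory dose-response assay in RAS-dependent BJ fibroblasts engineered with TERT, LT and ST, with cytotoxicity read by fluorescence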
[9] = molecular target: T1, Polyadenylate-binding protein 1 (Homo sapiens, UniProt P11940); assay: MLLE binding blockers, Cy5 peptide tracer – biochemical, fluorescence polarization, Cy5-PAM2 peptide, secondary, miRNA deadenylation inhibitor project, dose response (AID 602260); format: functional; conditions: read-out: IC50_Mean
[10] = molecular target: T1, Polyadenylate-binding protein 1; assay: MLLE domain peptide-binding blockers, IC50 – biochemical, fluorescence polarization, FITC-PAM2 peptide, dose response (AID 602259); format: functional; conditions: read-out: IC50_Mean
[11] = cytotoxicity toward MDA-MB-231 breast cancer cells – cell-based, CellTiter-Glo luminescence, cherry-pick, cytotoxicity control for RAD54 inhibitor project, dose response (AID 651692); format: functional
[12] = molecular target: T2, DNA repair and recombination protein RAD54-like (Homo sapiens, UniProt Q92698); assay: RAD54 Holliday junction migration blockers – biochemical, fluorescence, cherry-picked samples, dose series, confirmation (AID 651657); format: functional
T2 sequence (Q92698 whole entry): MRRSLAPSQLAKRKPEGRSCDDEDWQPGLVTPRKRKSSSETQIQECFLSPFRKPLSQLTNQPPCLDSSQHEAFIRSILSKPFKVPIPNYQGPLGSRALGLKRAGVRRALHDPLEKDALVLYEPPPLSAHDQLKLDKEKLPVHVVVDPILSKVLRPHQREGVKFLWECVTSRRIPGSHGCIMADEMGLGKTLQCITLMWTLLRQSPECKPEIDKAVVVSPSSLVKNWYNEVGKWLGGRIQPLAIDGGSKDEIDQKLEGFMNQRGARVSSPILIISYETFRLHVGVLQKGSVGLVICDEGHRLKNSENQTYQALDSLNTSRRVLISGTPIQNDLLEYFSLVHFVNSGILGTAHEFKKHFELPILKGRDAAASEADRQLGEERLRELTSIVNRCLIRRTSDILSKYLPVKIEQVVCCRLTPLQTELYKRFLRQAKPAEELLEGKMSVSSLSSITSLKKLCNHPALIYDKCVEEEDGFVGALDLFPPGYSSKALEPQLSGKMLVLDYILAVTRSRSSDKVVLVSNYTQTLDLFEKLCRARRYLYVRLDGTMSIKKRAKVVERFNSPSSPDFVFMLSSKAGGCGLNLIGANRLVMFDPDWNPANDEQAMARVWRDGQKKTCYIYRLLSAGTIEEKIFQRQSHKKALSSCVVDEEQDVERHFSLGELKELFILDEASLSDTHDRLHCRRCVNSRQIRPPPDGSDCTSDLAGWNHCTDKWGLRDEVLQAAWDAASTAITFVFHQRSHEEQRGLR

[13] = molecular target: T3, DNA repair protein RAD52 homolog (Homo sapiens, UniProt P43351); format: functional, biochemical
T3 sequence (P43351 whole entry): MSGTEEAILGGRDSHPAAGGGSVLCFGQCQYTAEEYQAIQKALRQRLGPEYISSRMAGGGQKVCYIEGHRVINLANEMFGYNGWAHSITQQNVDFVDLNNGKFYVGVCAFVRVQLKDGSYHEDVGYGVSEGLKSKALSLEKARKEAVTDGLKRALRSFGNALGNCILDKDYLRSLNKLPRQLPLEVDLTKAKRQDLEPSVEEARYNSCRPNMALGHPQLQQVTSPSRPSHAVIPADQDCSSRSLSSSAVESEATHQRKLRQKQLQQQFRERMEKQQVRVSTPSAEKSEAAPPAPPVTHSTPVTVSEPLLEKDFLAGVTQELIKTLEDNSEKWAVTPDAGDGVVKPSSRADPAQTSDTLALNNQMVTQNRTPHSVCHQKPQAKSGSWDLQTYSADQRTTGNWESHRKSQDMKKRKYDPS

Paired box protein Pax-8 = Paired box protein Pax-8 (Homo sapiens, UniProt Q06710); assay: PAX8 transcriptional activity inhibition in RMG-I – RMG-I cells, luciferase, cherry-pick, dose response (AID 687027); format: functional, cell-based;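 also: luciferase reporter driven by Pax8 target thyroperoxidase promoter measured by SteadyGlo luminescence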
[14] = Luminescence-based cell-based high throughput dose response assay to identify activators of the DAF-12 from the parasite S. stercoralis (ssDAF-12).; format: functional
[15] = Trypanosoma cruzi growth suppression in host cells – NIH3T3 host cells, beta-gal luminescence, confirmation (AID 2044); format: functional, cell-based;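 also: intracellular parasites grown in NIH/3T3 mouse fibroblasts as host cells; luminescent beta-galactosidase reporter signal from transgenic T. cruzi replicating inside host cells; inhibitors lower the luminescence signal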
[16] = NIH3T3 cell viability loss – ATP luminescence, mouse fibroblasts, counter-screen, dose response (AID 2010); format: functional, cell-based;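 also: cells exposed to compound for about 90 hours before reading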
[17] = Luminescence Cell-Based Dose Retest to Confirm Inhibitors of Cancer Stem Cells. [Related pubchem assays (depositor defined):AID2717, AID2721]; format: functional; conditions: Homo sapiens
[18] = viability loss of HMLE_sh_eGFP cells – cell-based, luminescence, counter-screen for HMLE_sh_ECad selective toxicity project, dose response (AID 463074); format: functional, Homo sapiens;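 also: HMLE human mammary epithelial cells expressing control shRNA against eGFP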
[19] = molecular target: Dual specificity protein kinase CLK1 (Homo sapiens, UniProt P49759); assay: inhibition of human CLK1 activity – biochemical, cherry-picked samples, selectivity assay for Dyrk1A inhibitor project, dose response (AID 588811)
[20] = test system: Streptococcus sp. 'group A'; assay: Streptococcus pyogenes SK(-)GAS viability under kanamycin – luminescence, BacTiterGlo, confirmation, counter-screen for streptokinase expression inhibitor project, dose response (AID 1900); format: functional, organism-based
Streptokinase A = molecular target: T4, Streptokinase A (Streptococcus pyogenes serotype M1, UniProt P10520); assay: viability-normalized secreted streptokinase activity reduction – plasminogen activation absorbance, OD405, dose response (AID 1914); format: functional, Streptococcus pyogenes M1 GAS;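 also: secreted streptokinase activity via plasminogen activation per viability signal from cell pellet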
T4 sequence (P10520 whole entry): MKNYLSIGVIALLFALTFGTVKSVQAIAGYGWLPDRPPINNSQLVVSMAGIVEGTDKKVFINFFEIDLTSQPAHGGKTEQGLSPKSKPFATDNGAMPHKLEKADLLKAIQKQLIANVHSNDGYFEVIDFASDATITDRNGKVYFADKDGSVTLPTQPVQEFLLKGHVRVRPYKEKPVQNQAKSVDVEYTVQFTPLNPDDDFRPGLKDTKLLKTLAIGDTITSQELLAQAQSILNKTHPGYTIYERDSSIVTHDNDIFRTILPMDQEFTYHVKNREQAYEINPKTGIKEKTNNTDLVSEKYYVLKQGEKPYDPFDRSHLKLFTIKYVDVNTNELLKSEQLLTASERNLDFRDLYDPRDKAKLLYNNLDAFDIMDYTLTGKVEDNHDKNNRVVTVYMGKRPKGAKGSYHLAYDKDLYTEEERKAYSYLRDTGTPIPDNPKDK

[21] = molecular target: Luciferin 4-monooxygenase (Photinus pyralis, UniProt P08659); assay: inhibition of purified Photinus pyralis luciferase – biochemical, luminescence, dose response (AID 1891)
Estrogen receptor = molecular target: T5, Estrogen receptor (Homo sapiens, UniProt P03372);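 also: potency for inhibiting coactivator peptide recruitment to the receptor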
T5 sequence (P03372 whole entry): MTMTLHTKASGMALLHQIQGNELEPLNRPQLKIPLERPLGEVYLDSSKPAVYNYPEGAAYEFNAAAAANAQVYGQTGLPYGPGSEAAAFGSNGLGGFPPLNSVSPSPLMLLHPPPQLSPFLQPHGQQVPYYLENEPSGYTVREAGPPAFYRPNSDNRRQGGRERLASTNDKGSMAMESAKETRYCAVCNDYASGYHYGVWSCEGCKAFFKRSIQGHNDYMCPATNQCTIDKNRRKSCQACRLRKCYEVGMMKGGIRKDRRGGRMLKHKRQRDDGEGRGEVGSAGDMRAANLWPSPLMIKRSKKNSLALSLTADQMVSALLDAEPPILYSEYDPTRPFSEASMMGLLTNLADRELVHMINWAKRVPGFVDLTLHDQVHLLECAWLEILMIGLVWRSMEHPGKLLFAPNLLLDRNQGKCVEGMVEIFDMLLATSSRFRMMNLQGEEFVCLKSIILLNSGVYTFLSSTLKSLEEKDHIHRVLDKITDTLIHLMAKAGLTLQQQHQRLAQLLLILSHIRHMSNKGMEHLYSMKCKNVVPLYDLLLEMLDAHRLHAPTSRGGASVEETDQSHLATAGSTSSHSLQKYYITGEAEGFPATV

[22] = Luminescence Cell-Based Dose Confirmation HTS to Identify Inhibitors of Platelet Dense Granule Release. [Related pubchem assays: 1663 (Primary HTS), 1678 (Summary of Project)]; format: functional
Estrogen receptor beta [23] = molecular target: T6, Estrogen receptor beta (Homo sapiens, UniProt Q92731);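 also: recombinant ER-beta bound to coactivator SRC1 peptide in presence of estradiol agonist; inhibitors block coactivator peptide binding and lower the FRET signal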
Estrogen receptor beta [24] = molecular target: T6, Estrogen receptor beta; assay: blockers of SRC-3 recruitment to ERβ – biochemical, ELISA, streptavidin-HRP readout, orthogonal assay, confirmation (AID 1060)
Streptococcus = assay: GAS UMAA2166 growth inhibition – luminescence, BacTiterGlo, counter-screen for streptokinase expression inhibitor project, dose response (AID 1915); format: functional, organism-based;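 also: potency for reduction of bacterial viability or growth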
[25] = molecular target: Sphingosine 1-phosphate receptor 2 (Homo sapiens, UniProt O95136); assay: Dose Response Cell Based Assay for Agonists of the S1P2 Receptor. [Related pubchem assays: 729, 736, 843 ]; format: functional
[26] = molecular target: T7, Bifunctional protein GlmU (Mycobacterium tuberculosis, UniProt P9WMN3); assay: Inhibitors of Mycobacterial Glucosamine-1-phosphate acetyl transferase (GlmU). Secondary screen.; set-up: species or system Mycobacterium tuberculosis H37Rv
T7 sequence (P9WMN3 whole entry): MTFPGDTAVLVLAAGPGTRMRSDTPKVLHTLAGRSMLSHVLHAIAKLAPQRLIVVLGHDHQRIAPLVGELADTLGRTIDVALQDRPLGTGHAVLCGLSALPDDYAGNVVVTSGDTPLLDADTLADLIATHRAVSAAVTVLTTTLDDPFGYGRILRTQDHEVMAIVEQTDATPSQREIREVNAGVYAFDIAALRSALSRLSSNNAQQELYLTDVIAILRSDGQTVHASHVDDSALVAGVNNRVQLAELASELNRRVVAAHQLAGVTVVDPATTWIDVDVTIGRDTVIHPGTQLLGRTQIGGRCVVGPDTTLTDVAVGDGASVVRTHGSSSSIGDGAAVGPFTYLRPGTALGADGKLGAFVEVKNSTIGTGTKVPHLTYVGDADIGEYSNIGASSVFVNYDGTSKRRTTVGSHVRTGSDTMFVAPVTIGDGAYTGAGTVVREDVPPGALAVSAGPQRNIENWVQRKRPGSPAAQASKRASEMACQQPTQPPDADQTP

[27] = molecular target: Induced myeloid leukemia cell differentiation protein Mcl-1 (Homo sapiens, UniProt Q07820); format: functional
CAAX prenyl protease 1 = CAAX prenyl protease 1 (Saccharomyces cerevisiae S288c, UniProt P47154); assay: yeast CAAX protease Ste24 inhibition – biochemical, S. cerevisiae, plate reader, cherry-pick, dose response (AID 488815)
Chain of CAAX prenyl protease 1 (P47154 whole entry): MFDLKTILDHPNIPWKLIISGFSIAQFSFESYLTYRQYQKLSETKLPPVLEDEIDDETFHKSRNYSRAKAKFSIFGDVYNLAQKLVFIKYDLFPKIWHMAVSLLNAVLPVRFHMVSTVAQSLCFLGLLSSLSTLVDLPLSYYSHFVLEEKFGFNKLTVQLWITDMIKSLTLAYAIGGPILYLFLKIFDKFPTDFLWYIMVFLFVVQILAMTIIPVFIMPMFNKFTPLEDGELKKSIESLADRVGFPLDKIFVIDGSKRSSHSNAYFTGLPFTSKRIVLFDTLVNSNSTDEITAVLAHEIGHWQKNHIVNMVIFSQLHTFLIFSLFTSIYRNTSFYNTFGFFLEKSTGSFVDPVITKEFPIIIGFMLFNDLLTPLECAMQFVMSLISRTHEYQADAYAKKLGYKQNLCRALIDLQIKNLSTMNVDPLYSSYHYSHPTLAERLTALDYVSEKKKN

T1 sequence (P11940 whole entry, the tested form may be a part): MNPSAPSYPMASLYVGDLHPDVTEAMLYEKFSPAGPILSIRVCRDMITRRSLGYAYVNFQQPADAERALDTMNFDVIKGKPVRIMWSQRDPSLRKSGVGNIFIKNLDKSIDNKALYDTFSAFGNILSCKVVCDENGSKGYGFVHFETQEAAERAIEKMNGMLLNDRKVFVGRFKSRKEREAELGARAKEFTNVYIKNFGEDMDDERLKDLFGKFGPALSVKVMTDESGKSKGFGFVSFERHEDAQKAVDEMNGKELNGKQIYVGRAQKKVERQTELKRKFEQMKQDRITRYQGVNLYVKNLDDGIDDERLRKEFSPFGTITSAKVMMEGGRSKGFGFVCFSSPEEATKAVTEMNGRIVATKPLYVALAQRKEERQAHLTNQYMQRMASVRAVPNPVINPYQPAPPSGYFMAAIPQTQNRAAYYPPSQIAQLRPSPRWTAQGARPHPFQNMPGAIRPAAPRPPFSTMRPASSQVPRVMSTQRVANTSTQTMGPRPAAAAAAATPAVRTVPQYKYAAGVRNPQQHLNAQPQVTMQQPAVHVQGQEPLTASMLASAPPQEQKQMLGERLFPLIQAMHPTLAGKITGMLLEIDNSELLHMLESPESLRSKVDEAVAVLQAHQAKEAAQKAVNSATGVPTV
Chain of Sphingosine 1-phosphate receptor 4 (O95977 whole entry): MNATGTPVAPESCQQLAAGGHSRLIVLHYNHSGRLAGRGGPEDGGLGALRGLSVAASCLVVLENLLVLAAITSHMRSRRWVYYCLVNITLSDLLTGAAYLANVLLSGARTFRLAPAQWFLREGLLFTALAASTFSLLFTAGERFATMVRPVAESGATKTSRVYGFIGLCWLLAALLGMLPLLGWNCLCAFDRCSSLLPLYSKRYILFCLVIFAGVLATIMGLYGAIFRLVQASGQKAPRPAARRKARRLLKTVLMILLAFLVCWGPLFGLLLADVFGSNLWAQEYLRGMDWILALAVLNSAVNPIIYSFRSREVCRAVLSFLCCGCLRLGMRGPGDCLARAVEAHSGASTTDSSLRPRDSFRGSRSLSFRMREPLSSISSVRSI
T6 sequence (Q92731 whole entry): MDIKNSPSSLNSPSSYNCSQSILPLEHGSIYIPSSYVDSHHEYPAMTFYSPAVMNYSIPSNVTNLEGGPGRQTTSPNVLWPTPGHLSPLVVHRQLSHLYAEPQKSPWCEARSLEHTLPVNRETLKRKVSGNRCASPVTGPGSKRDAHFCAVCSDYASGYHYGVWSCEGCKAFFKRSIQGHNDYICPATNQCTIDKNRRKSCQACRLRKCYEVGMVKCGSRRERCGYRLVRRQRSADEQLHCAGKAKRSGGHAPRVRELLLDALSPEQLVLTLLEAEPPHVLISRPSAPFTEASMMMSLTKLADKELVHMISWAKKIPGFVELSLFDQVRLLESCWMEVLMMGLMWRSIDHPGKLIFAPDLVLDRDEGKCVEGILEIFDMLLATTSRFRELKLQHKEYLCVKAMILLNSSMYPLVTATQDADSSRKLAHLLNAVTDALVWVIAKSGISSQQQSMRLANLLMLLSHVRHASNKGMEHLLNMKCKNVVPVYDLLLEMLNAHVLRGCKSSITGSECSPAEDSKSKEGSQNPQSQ
Chain of Sphingosine 1-phosphate receptor 1 (P21453 whole entry): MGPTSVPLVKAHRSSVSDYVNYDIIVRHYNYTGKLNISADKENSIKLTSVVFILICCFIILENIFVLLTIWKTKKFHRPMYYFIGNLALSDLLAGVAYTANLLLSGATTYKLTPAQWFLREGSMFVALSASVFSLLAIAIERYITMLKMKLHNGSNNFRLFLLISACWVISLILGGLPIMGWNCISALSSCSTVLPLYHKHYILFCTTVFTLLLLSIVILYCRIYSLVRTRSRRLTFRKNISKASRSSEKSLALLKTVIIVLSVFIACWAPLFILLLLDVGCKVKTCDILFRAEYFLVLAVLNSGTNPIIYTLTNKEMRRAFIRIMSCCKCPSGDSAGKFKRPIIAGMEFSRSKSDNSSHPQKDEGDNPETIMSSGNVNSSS
Chain of Luciferin 4-monooxygenase (P08659 whole entry): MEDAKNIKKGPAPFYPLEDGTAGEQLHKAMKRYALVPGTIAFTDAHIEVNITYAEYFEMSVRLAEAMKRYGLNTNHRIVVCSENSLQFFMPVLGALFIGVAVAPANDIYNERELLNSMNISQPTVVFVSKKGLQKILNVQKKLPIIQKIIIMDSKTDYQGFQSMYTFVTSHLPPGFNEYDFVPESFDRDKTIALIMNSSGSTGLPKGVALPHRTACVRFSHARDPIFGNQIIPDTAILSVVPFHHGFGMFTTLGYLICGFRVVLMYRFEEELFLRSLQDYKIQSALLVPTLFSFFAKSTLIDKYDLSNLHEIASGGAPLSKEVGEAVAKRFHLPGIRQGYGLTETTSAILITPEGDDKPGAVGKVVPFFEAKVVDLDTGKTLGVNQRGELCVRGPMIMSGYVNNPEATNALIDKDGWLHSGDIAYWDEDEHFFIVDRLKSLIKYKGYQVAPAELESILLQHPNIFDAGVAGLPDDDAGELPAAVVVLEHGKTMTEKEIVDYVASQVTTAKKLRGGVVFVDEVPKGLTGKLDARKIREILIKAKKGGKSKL
Chain of Induced myeloid leukemia cell differentiation protein Mcl-1 (Q07820 whole entry): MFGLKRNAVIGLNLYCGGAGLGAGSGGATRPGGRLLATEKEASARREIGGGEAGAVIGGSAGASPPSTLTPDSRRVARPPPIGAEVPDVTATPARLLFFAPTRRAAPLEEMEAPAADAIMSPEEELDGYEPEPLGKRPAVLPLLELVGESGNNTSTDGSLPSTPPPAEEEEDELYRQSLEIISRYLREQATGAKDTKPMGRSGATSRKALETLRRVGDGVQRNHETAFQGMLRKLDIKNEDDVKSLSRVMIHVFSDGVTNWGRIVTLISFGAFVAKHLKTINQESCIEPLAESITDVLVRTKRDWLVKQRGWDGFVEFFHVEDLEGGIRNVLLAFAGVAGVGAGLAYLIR
Chain of Sphingosine 1-phosphate receptor 2 (O95136 whole entry): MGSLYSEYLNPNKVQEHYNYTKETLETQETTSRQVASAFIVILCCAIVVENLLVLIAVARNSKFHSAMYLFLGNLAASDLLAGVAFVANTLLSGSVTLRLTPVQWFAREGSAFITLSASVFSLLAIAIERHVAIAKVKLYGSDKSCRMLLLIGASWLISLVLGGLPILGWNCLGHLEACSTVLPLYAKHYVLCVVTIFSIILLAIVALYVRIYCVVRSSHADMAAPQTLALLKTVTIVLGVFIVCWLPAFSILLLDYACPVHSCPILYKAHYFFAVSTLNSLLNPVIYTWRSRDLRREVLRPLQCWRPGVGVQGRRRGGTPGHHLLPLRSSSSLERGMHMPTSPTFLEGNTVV
Chain of Paired box protein Pax-8 (Q06710 whole entry): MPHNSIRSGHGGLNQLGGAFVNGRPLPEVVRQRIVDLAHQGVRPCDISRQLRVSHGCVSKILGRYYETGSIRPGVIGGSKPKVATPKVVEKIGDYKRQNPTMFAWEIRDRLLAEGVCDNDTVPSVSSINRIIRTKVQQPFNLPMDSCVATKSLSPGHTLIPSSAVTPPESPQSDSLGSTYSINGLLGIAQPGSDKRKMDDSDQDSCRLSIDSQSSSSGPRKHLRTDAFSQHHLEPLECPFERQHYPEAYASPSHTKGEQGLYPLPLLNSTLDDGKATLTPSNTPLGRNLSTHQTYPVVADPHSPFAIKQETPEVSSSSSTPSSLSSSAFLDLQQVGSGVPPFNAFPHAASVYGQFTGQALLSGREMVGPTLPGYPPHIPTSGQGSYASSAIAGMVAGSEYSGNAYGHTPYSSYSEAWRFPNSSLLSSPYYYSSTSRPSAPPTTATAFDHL
Chain of Dual specificity protein kinase CLK1 (P49759 whole entry): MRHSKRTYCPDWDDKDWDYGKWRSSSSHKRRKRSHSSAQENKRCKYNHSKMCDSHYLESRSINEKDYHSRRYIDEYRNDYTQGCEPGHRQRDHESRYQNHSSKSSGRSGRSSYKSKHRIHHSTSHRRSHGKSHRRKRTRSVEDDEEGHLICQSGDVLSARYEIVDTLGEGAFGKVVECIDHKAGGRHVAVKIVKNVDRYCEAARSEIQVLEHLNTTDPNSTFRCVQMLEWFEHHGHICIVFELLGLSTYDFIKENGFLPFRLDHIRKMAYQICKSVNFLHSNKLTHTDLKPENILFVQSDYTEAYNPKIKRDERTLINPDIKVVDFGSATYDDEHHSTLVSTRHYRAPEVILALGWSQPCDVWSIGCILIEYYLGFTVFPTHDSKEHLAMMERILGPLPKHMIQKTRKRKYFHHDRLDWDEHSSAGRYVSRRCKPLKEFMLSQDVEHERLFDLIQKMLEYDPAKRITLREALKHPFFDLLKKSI

## O=C1c2cccc3cc([N+](=O)[O-])cc(c23)C(=O)N1CCN1CCCC1 [PINAFIDE]
[1]
  EC50: 3.11 µM (active)
BJ [2]
  EC50: 5.47 µM (inconclusive)
BJ [3]
  EC50: 9.59 µM (active)
[4]
  EC50: > 5.53 µM (not active)
BJ [5]
  EC50: > 150 µM (inconclusive)
[6]
  EC50: 5.03 µM (inconclusive)
[7]
  IC50: > 80 µM (inactive)
BJ [8]
  EC50: 0.478 µM (active)
[9]
  IC50: > 66 µM (inactive)
[10]
  IC50: 44.7 µM (inactive)
[11]
  AC50: 16 µM (inactive)
[12]
  AC50: 2.94 µM (active)
[13]
  AC50: 8.44 µM (active)
Paired box protein Pax-8
  AC50: 0.87 µM (active)
[14]
  IC50: > 67.5 µM (inactive)

## COc1cc(-c2nc(-c3ccccc3)c(-c3cccs3)[nH]2)cc(OC)c1OC
[15]
  EC50: 1.21 µM (active)
[16]
  EC50: > 30 µM (not active)
[17]
  AC50: 50.3 µM (active)
[18]
  AC50: 29.9 µM (active)

## Cc1csc(CN(C)c2ncnc3ccc(-c4ccc5c(c4)OCO5)cc23)n1
[19]
  AC50: 2.23 µM (active)

## O=C(NCc1ccco1)c1cc2ccc(O)cc2oc1=O
[1]
  EC50: 5.05 µM (active)
[20]
  EC50: 7.99 µM (active)
Streptokinase A
  EC50: > 150 µM (not active)
[21]
  EC50: 0.288 µM (active)
Estrogen receptor
  IC50: 14.3 µM (active)
[22]
  EC50: 1.82 µM (active)
[4]
  EC50: 1.84 µM (active)
Estrogen receptor beta [23]
  IC50: 3.57 µM (active)
Estrogen receptor beta [24]
  IC50: > 50 µM (not active)
Streptococcus
  EC50: 13.3 µM (active)
[25]
  EC50: 3.28 µM (active)

## O=C1NN(c2cccc(F)c2)C(=O)/C1=C1\C(=O)Nc2ccccc21
[26]
  IC50: 199 µM (active)
[27]
  IC50: < 0.4 µM (active)
[17]
  AC50: 4.9 µM (active)
[18]
  AC50: 43.3 µM (active)
[9]
  IC50: > 66 µM (inactive)
[10]
  IC50: > 66 µM (inactive)

## CC1=CC2=NC(=O)CC(C)(C(=O)N(CC(=O)NC3CCCC3)Cc3ccccc3)N2C=C1 (stereo not drawn)
CAAX prenyl protease 1
  AC50: 11.5 µM (active)

Source: ChEMBL document CHEMBL1201862, “PubChem BioAssay data set” (2004)
